{"source": "paper PMC11966747", "about": "“Next Generation Risk Assessment of Acute Neurotoxicity from Organophosphate Exposures Using the In Vitro–In Silico Derived Dietary Comparator Ratio” (Environmental Science & Technology, 2025)", "key": {"erythrocyte AChE [1]": {"biological_target": "T1, erythrocyte AChE (Homo sapiens, UniProt P22303)", "T1 sequence (P22303 32-617 isoform P22303-2 limits assumed)": "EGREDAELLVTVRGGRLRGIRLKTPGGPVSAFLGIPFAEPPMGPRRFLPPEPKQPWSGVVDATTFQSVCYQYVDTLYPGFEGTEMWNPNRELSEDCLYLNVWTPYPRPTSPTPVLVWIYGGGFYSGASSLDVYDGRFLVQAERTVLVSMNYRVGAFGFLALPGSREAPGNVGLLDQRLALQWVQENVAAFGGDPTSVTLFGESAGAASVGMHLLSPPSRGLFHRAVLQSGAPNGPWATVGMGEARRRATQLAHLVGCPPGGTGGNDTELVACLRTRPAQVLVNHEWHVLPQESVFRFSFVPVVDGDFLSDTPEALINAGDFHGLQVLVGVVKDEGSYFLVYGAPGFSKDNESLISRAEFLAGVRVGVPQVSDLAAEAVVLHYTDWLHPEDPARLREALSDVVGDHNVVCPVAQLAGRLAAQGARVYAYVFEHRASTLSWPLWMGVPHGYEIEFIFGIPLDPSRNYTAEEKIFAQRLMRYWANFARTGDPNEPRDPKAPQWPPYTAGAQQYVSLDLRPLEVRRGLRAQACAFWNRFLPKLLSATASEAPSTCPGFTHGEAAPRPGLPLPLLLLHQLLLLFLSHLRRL", "assay": "Exposure Activity Ratio (EAR) and Dietary Comparator Ratio (DCR) calculation", "parameters": "from tissue; host or cells: human whole peripheral blood (erythrocytes), K2EDTA anticoagulant", "settings": "human", "procedure": "The DCR value for an exposure scenario was calculated as the ratio of EARtest and EARcomparator (eq 1). The EARtest is scenario-specific and was defined with the IC50 of the tested organophosphate oxon for in vitro erythrocyte AChE inhibition and the PBK model-simulated CBmaxoxon at the defined exposure level (eq 2).\nThe DCR-based predictions were evaluated by comparing the obtained DCR results with actual knowledge of the adverse health effects reported for the respective exposure scenarios. Adverse effects cannot be ruled out for human exposure scenarios with a DCR result greater than 1, while exposure scenarios with a DCR result less than or equal to 1 are considered to raise no safety concern.[18]−[20] Once validated as an adequate predicting tool, the DCR approach was applied for evaluating the safety of exposure scenarios, for which no information on the resulting toxic outcomes was reported at the defined dose levels for humans."}, "[2]": {"settings": "QSAR-based prediction; ref Punt et al. 2022; Moerenhout et al. 2024; cited from earlier work"}, "erythrocyte AChE [3]": {"biological_target": "T1, erythrocyte AChE", "settings": "cited from earlier work; for reported or expected adverse health outcome: human, ref Table S2"}, "[4]": {"settings": "214 mg/kg BW (15 g) acute oral, person, ref Klemmer et al. 1978"}, "[5]": {"settings": "357 mg/kg BW (25 g) acute oral, person seven, ref Klemmer et al. 1978"}, "[6]": {"settings": "357 mg/kg BW (25 g) acute oral, person six, ref Klemmer et al. 1978"}, "[7]": {"settings": "643 mg/kg BW (45 g) acute oral, person, ref Klemmer et al. 1978"}}, "note": "Like-named read-outs stand apart in the source and are kept apart here."}
{"compound": "CCOP(=S)(OCC)Oc1cc(C)nc(C(C)C)n1", "note": "[diazinon]", "values": [{"measurement": "calculated DCR value", "setting": "erythrocyte AChE [1]; single oral 0.011 mg/kg BW", "result": "2.1 × 10^–4"}, {"measurement": "calculated EARtest value", "setting": "erythrocyte AChE [1]; single oral 0.011 mg/kg BW", "result": "8.3 × 10^–6"}, {"measurement": "calculated DCR value", "setting": "erythrocyte AChE [1]; single oral 0.03 mg/kg BW", "result": "5.7 × 10^–4"}, {"measurement": "calculated EARtest value", "setting": "erythrocyte AChE [1]; single oral 0.03 mg/kg BW", "result": "2.3 × 10^–5"}, {"measurement": "calculated DCR value", "setting": "erythrocyte AChE [1]; single oral 0.12 mg/kg BW", "result": "2.3 × 10^–3"}, {"measurement": "calculated EARtest value", "setting": "erythrocyte AChE [1]; single oral 0.12 mg/kg BW", "result": "9.1 × 10^–5"}, {"measurement": "calculated DCR value", "setting": "erythrocyte AChE [1]; single oral 0.20 mg/kg BW", "result": "3.8 × 10^–3"}, {"measurement": "calculated EARtest value", "setting": "erythrocyte AChE [1]; single oral 0.20 mg/kg BW", "result": "1.5 × 10^–4"}, {"measurement": "calculated EARtest value", "setting": "erythrocyte AChE [1]; single oral 0.21 mg/kg BW", "result": "1.6 × 10^–4"}, {"measurement": "calculated EARtest value", "setting": "erythrocyte AChE [1]; single oral 0.30 mg/kg BW", "result": "2.3 × 10^–4"}, {"measurement": "calculated DCR value", "setting": "erythrocyte AChE [1]; single oral 200 mg/kg BW", "result": 2.1}, {"measurement": "calculated EARtest value", "setting": "erythrocyte AChE [1]; single oral 200 mg/kg BW", "result": 0.084}, {"measurement": "calculated DCR value", "setting": "erythrocyte AChE [1]; single oral 214 mg/kg BW", "result": 2.2}, {"measurement": "calculated EARtest value", "setting": "erythrocyte AChE [1]; single oral 214 mg/kg BW", "result": 0.085}, {"measurement": "calculated DCR value", "setting": "erythrocyte AChE [1]; single oral 293 mg/kg BW", "result": 2.3}, {"measurement": "calculated EARtest value", "setting": "erythrocyte AChE [1]; single oral 293 mg/kg BW", "result": 0.089}, {"measurement": "calculated DCR value", "setting": "erythrocyte AChE [1]; single oral 323 mg/kg BW", "result": 2.3}, {"measurement": "calculated EARtest value", "setting": "erythrocyte AChE [1]; single oral 323 mg/kg BW", "result": 0.090}, {"measurement": "calculated DCR value", "setting": "erythrocyte AChE [1]; single oral 357 mg/kg BW", "result": 2.3}, {"measurement": "calculated EARtest value", "setting": "erythrocyte AChE [1]; single oral 357 mg/kg BW", "result": 0.091}, {"measurement": "calculated DCR value", "setting": "erythrocyte AChE [1]; single oral 429 mg/kg BW", "result": 2.3}, {"measurement": "calculated EARtest value", "setting": "erythrocyte AChE [1]; single oral 429 mg/kg BW", "result": 0.093}, {"measurement": "calculated DCR value", "setting": "erythrocyte AChE [1]; single oral 643 mg/kg BW", "result": 2.4}, {"measurement": "calculated EARtest value", "setting": "erythrocyte AChE [1]; single oral 643 mg/kg BW", "result": 0.095}, {"measurement": "Oral absorption rate constant", "setting": "[2]", "result": 0.73, "unit": "h⁻¹"}, {"measurement": "Reported erythrocyte AChE activity/inhibition", "setting": "erythrocyte AChE [3]; 0.011 mg/kg BW single oral, 4 male and 1 female volunteers, ref Garfitt et al. 2002", "result": "No erythrocyte AChE inhibition"}, {"measurement": "Reported erythrocyte AChE activity/inhibition", "setting": "erythrocyte AChE [3]; 0.03 mg/kg BW single oral, 7 male volunteers, ref APVMA. 2011, US EPA. 2001 (original data of Boyeson. 2000)", "result": "No erythrocyte AChE inhibition"}, {"measurement": "Reported erythrocyte AChE activity/inhibition", "setting": "erythrocyte AChE [3]; 0.12 mg/kg BW single oral, 7 male volunteers, ref APVMA. 2011, US EPA. 2001 (original data of Boyeson. 2000)", "result": "No erythrocyte AChE inhibition"}, {"measurement": "Reported erythrocyte AChE activity/inhibition", "setting": "erythrocyte AChE [3]; 0.20 mg/kg BW single oral, 7 male volunteers, ref APVMA. 2011, US EPA. 2001 (original data of Boyeson. 2000)", "result": "No erythrocyte AChE inhibition"}, {"measurement": "Reported erythrocyte AChE activity/inhibition", "setting": "erythrocyte AChE [3]; 0.21 mg/kg BW single oral, 7 male volunteers, APVMA: significant inhibition, US EPA: limited, ref APVMA. 2011, US EPA. 2001 (original data of Boyeson. 2000)", "result": "Conflicting opinions"}, {"measurement": "Reported concomitant effects (signs and symptoms)", "setting": "erythrocyte AChE [3]; 0.21 mg/kg BW single oral, 7 male volunteers, might occur, ref APVMA. 2011, US EPA. 2001 (original data of Boyeson. 2000)", "result": "Mild clinical signs or symptoms"}, {"measurement": "Reported erythrocyte AChE activity/inhibition", "setting": "erythrocyte AChE [3]; 0.30 mg/kg BW single oral, 1 volunteer, APVMA: inhibition greater than at 0.20 mg/kg BW, US EPA: no inhibition, ref APVMA. 2011, US EPA. 2001 (original data of Boyeson. 2000)", "result": "Conflicting opinions"}, {"measurement": "Reported concomitant effects (signs and symptoms)", "setting": "erythrocyte AChE [3]; 0.30 mg/kg BW single oral, 1 volunteer, might occur, ref APVMA. 2011, US EPA. 2001 (original data of Boyeson. 2000)", "result": "Mild clinical signs or symptoms"}, {"measurement": "Reported concomitant effects (signs and symptoms)", "setting": "erythrocyte AChE [3]; 200 mg/kg BW (14 - 57 g) acute oral, 14 males and 11 females, ref APVMA. 2011 (original data of Mutalik et al. 1962)", "result": "Toxic symptoms occurred"}, {"measurement": "Reported concomitant effects (signs and symptoms)", "setting": "erythrocyte AChE [3]; [4]", "result": "toxic symptoms occurred"}, {"measurement": "Reported erythrocyte AChE activity/inhibition", "setting": "erythrocyte AChE [3]; [4]", "result": "Significantly decreased"}, {"measurement": "Reported concomitant effects (signs and symptoms)", "setting": "erythrocyte AChE [3]; 293 mg/kg BW (22 g) acute oral, person, ref Poklis et al. 1980", "result": "Died"}, {"measurement": "Reported concomitant effects (signs and symptoms)", "setting": "erythrocyte AChE [3]; 323 mg/kg BW (22.6 g) acute oral, person, ref APVMA. 2011 (original data of Banerjee. 1967)", "result": "Toxic symptoms occurred"}, {"measurement": "Reported concomitant effects (signs and symptoms)", "setting": "erythrocyte AChE [3]; [5]", "result": "toxic symptoms occurred"}, {"measurement": "Reported erythrocyte AChE activity/inhibition", "setting": "erythrocyte AChE [3]; [5]", "result": "Significantly decreased"}, {"measurement": "Reported concomitant effects (signs and symptoms)", "setting": "erythrocyte AChE [3]; [6]", "result": "toxic symptoms occurred"}, {"measurement": "Reported erythrocyte AChE activity/inhibition", "setting": "erythrocyte AChE [3]; [6]", "result": "Significantly decreased"}, {"measurement": "Reported concomitant effects (signs and symptoms)", "setting": "erythrocyte AChE [3]; 429 mg/kg BW (30 g) acute oral, person, ref Martinez-Chuecos et al. 1992", "result": "Toxic symptoms occurred"}, {"measurement": "Reported concomitant effects (signs and symptoms)", "setting": "erythrocyte AChE [3]; [7]", "result": "toxic symptoms occurred"}, {"measurement": "Reported erythrocyte AChE activity/inhibition", "setting": "erythrocyte AChE [3]; [7]", "result": "Significantly decreased"}, {"measurement": "reported or expected adverse health outcome", "setting": "erythrocyte AChE [3]; single oral 0.011 mg/kg BW, 0.011 mg/kg", "result": "negative"}, {"measurement": "reported or expected adverse health outcome", "setting": "erythrocyte AChE [3]; single oral 0.011 mg/kg BW, listed as Diazinon, 0.011 mg/kg", "result": "No"}, {"measurement": "reported or expected adverse health outcome", "setting": "erythrocyte AChE [3]; single oral 0.03 mg/kg BW, 0.03 mg/kg", "result": "negative"}, {"measurement": "reported or expected adverse health outcome", "setting": "erythrocyte AChE [3]; single oral 0.03 mg/kg BW, listed as Diazinon, 0.03 mg/kg", "result": "No"}, {"measurement": "reported or expected adverse health outcome", "setting": "erythrocyte AChE [3]; single oral 0.12 mg/kg BW, 0.12 mg/kg", "result": "negative"}, {"measurement": "reported or expected adverse health outcome", "setting": "erythrocyte AChE [3]; single oral 0.12 mg/kg BW, listed as Diazinon, 0.12 mg/kg", "result": "No"}, {"measurement": "reported or expected adverse health outcome", "setting": "erythrocyte AChE [3]; single oral 0.20 mg/kg BW, 0.2 mg/kg", "result": "negative"}, {"measurement": "reported or expected adverse health outcome", "setting": "erythrocyte AChE [3]; single oral 0.20 mg/kg BW, listed as Diazinon, 0.2 mg/kg", "result": "No"}, {"measurement": "reported or expected adverse health outcome", "setting": "erythrocyte AChE [3]; single oral 200 mg/kg BW, 200 mg/kg", "result": "positive"}, {"measurement": "reported or expected adverse health outcome", "setting": "erythrocyte AChE [3]; single oral 200 mg/kg BW, listed as Diazinon, 200 mg/kg", "result": "Yes"}, {"measurement": "reported or expected adverse health outcome", "setting": "erythrocyte AChE [3]; single oral 214 mg/kg BW, 214 mg/kg", "result": "positive"}, {"measurement": "reported or expected adverse health outcome", "setting": "erythrocyte AChE [3]; single oral 214 mg/kg BW, listed as Diazinon, 214 mg/kg", "result": "Yes"}, {"measurement": "reported or expected adverse health outcome", "setting": "erythrocyte AChE [3]; single oral 293 mg/kg BW, 293 mg/kg", "result": "positive"}, {"measurement": "reported or expected adverse health outcome", "setting": "erythrocyte AChE [3]; single oral 293 mg/kg BW, listed as Diazinon, 293 mg/kg", "result": "Yes"}, {"measurement": "reported or expected adverse health outcome", "setting": "erythrocyte AChE [3]; single oral 323 mg/kg BW, 323 mg/kg", "result": "positive"}, {"measurement": "reported or expected adverse health outcome", "setting": "erythrocyte AChE [3]; single oral 323 mg/kg BW, listed as Diazinon, 323 mg/kg", "result": "Yes"}, {"measurement": "reported or expected adverse health outcome", "setting": "erythrocyte AChE [3]; single oral 357 mg/kg BW, 357 mg/kg", "result": "positive"}, {"measurement": "reported or expected adverse health outcome", "setting": "erythrocyte AChE [3]; single oral 357 mg/kg BW, listed as Diazinon, 357 mg/kg", "result": "Yes"}, {"measurement": "reported or expected adverse health outcome", "setting": "erythrocyte AChE [3]; single oral 429 mg/kg BW, 429 mg/kg", "result": "positive"}, {"measurement": "reported or expected adverse health outcome", "setting": "erythrocyte AChE [3]; single oral 429 mg/kg BW, listed as Diazinon, 429 mg/kg", "result": "Yes"}, {"measurement": "reported or expected adverse health outcome", "setting": "erythrocyte AChE [3]; single oral 643 mg/kg BW, 643 mg/kg", "result": "positive"}, {"measurement": "reported or expected adverse health outcome", "setting": "erythrocyte AChE [3]; single oral 643 mg/kg BW, listed as Diazinon, 643 mg/kg", "result": "Yes"}]}
